Results as given in ChEMBL document CHEMBL1201862, “PubChem BioAssay data set” (2004).
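Following 48 hours of exposure in 96-well plates, responses at five concentrations were used to interpolate endpoints linearly. At the GI50, growth is halved.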 Active and inactive are the calls of the source. No stated cut-off is given here; in the data, active = GI50 up to about 1.1 µM and inactive = higher.

What was measured:
Assay in all cases: inhibition of tumour cell growth, NCI panel, 48 h
[1] = test system: TK-10
[2] = test system: BT-549
[3] = test system: T47D
[4] = test system: DU-145
[5] = test system: ACHN
[6] = test system: MDA-N
[7] = test system: CAKI-1
[8] = test system: NCI/ADR-RES
[9] = test system: MDA-MB-231
[10] = test system: Hs-578T
[11] = test system: Malme-3M
[12] = test system: SR
[13] = test system: A498
[14] = test system: NCI-H522
[15] = test system: RPMI-8226
[16] = test system: 786-0
[17] = test system: EKVX
[18] = test system: LOX IMVI
[19] = test system: PC-3
[20] = test system: DMS-114

SMILES: COc1cc2c3c(c4ccc(O)cc4c2cc1OC)[C@@H](O)[C@@H]1CCCN1C3
- GI50 [1]: 0.00106 µM (active)
- GI50 [2]: 0.00168 µM (active)
- GI50 [3]: < 0.001 µM (active)
- GI50 [4]: < 0.001 µM (active)
- GI50 [5]: < 0.001 µM (active)
- GI50 [6]: < 0.001 µM (active)
- GI50 [7]: < 0.001 µM (active)
- GI50 [8]: 0.00166 µM (active)
- GI50 [9]: < 0.001 µM (active)
- GI50 [10]: < 0.001 µM (active)
- GI50 [11]: < 0.001 µM (active)
- GI50 [12]: < 0.001 µM (active)
- GI50 [13]: < 0.001 µM (active)
- GI50 [14]: < 0.001 µM (active)
- GI50 [15]: < 0.001 µM (active)
- GI50 [16]: < 0.001 µM (active)
- GI50 [17]: < 0.001 µM (active)
- GI50 [18]: < 0.001 µM (active)
- GI50 [19]: 0.0019 µM (active)

SMILES: O=c1cc(O)ccn1C1C=C(CO)C(O)C1O (stereo unspecified)
- GI50 [7]: > 625 µM (inactive)
- GI50 [8]: > 625 µM (inactive)
- GI50 [11]: > 625 µM (inactive)
- GI50 [20]: > 625 µM (inactive)
- GI50 [15]: 411 µM (inactive)
- GI50 [18]: 455 µM (inactive)

SMILES: Cc1c(/C=N/NC(=O)c2ccccc2O)c(=O)n(-c2ccccc2)n1C
- GI50 [1]: > 100 µM (inactive)
- GI50 [5]: > 100 µM (inactive)
- GI50 [11]: > 100 µM (inactive)
- GI50 [12]: 45.8 µM (inactive)
- GI50 [20]: > 100 µM (inactive)
- GI50 [14]: > 100 µM (inactive)
- GI50 [15]: 48.2 µM (inactive)
- GI50 [16]: > 100 µM (inactive)
- GI50 [17]: 49.2 µM (inactive)
- GI50 [18]: 45.4 µM (inactive)

SMILES: COC(=O)C1=COC2OC3CC1C2C(C)O3 (stereo unspecified)
- GI50 [1]: > 100 µM (inactive)
- GI50 [2]: > 100 µM (inactive)
- GI50 [3]: > 100 µM (inactive)
- GI50 [4]: > 100 µM (inactive)
- GI50 [5]: > 100 µM (inactive)
- GI50 [6]: > 100 µM (inactive)
- GI50 [7]: > 100 µM (inactive)
- GI50 [8]: > 100 µM (inactive)
- GI50 [9]: > 100 µM (inactive)
- GI50 [10]: > 100 µM (inactive)
- GI50 [11]: > 100 µM (inactive)
- GI50 [12]: > 100 µM (inactive)
- GI50 [13]: > 100 µM (inactive)
- GI50 [14]: > 100 µM (inactive)
- GI50 [15]: > 100 µM (inactive)
- GI50 [16]: > 100 µM (inactive)
- GI50 [17]: > 100 µM (inactive)
- GI50 [18]: > 100 µM (inactive)
- GI50 [19]: > 100 µM (inactive)

SMILES: CC(=O)C(/N=N\C1CCC(S(=O)(=O)NB2N=CS2)CC1)C(=O)Nc1ccccc1C (stereo unspecified)
- GI50 [1]: 25.6 µM (inactive)
- GI50 [5]: 12.2 µM (inactive)
- GI50 [7]: 23.1 µM (inactive)
- GI50 [11]: 16 µM (inactive)
- GI50 [12]: 43.7 µM (inactive)
- GI50 [20]: 11.9 µM (inactive)
- GI50 [13]: 16.7 µM (inactive)
- GI50 [14]: 15.3 µM (inactive)
- GI50 [15]: 31.1 µM (inactive)
- GI50 [17]: 19.3 µM (inactive)

SMILES: CC1(O)CCC2(C#N)CCC1C2O (stereo unspecified)
- GI50 [1]: > 100 µM (inactive)
- GI50 [5]: > 100 µM (inactive)
- GI50 [7]: > 100 µM (inactive)
- GI50 [11]: > 100 µM (inactive)
- GI50 [12]: 20.3 µM (inactive)
- GI50 [20]: 16.2 µM (inactive)
- GI50 [13]: > 100 µM (inactive)
- GI50 [14]: 50.6 µM (inactive)
- GI50 [15]: 26.5 µM (inactive)
- GI50 [16]: > 100 µM (inactive)
- GI50 [17]: > 100 µM (inactive)
- GI50 [18]: 23.2 µM (inactive)

SMILES: CCCCCNC(=O)c1c(O)[nH]c(=S)[nH]c1=O
- GI50 [1]: > 100 µM (inactive)
- GI50 [5]: > 100 µM (inactive)
- GI50 [7]: > 100 µM (inactive)
- GI50 [11]: > 100 µM (inactive)
- GI50 [12]: > 100 µM (inactive)
- GI50 [20]: 60.7 µM (inactive)
- GI50 [13]: 96.8 µM (inactive)
- GI50 [14]: > 100 µM (inactive)
- GI50 [15]: > 100 µM (inactive)
- GI50 [16]: > 100 µM (inactive)
- GI50 [18]: > 100 µM (inactive)

SMILES: COc1cc[n+](C)cc1
- GI50 [8]: > 100 µM (inactive)
- GI50 [11]: > 100 µM (inactive)
- GI50 [20]: > 100 µM (inactive)
- GI50 [14]: > 100 µM (inactive)
- GI50 [15]: > 100 µM (inactive)
- GI50 [17]: > 100 µM (inactive)
- GI50 [18]: > 100 µM (inactive)

SMILES: COc1cc(-c2ccc(/N=N/c3c(S(=O)(=O)O)cc4cc(S(=O)(=O)O)cc(N)c4c3O)c(OC)c2)ccc1/N=N/c1c(S(=O)(=O)O)cc2cc(S(=O)(=O)O)cc(N)c2c1O
- GI50 [8]: > 100 µM (inactive)
- GI50 [11]: > 100 µM (inactive)
- GI50 [20]: 73.1 µM (inactive)
- GI50 [13]: > 100 µM (inactive)
- GI50 [14]: > 100 µM (inactive)
- GI50 [15]: > 100 µM (inactive)
- GI50 [17]: 88.5 µM (inactive)
- GI50 [18]: > 90.6 µM (inactive)

SMILES: COc1ccc2cc(CNCCCCCCCCCCCCNCc3ccc4cc(OC)ccc4c3)ccc2c1
- GI50 [1]: 18.8 µM (inactive)
- GI50 [2]: 18.9 µM (inactive)
- GI50 [3]: 15.8 µM (inactive)
- GI50 [4]: 30 µM (inactive)
- GI50 [5]: 19.6 µM (inactive)
- GI50 [6]: 21.4 µM (inactive)
- GI50 [7]: 20.9 µM (inactive)
- GI50 [8]: 19.5 µM (inactive)
- GI50 [9]: 23.5 µM (inactive)
- GI50 [10]: 15.9 µM (inactive)
- GI50 [11]: 16.6 µM (inactive)
- GI50 [12]: 1.79 µM (inactive)
- GI50 [13]: 18 µM (inactive)
- GI50 [14]: 18.9 µM (inactive)
- GI50 [15]: 12.8 µM (inactive)
- GI50 [16]: 16.5 µM (inactive)
- GI50 [17]: 20.3 µM (inactive)
- GI50 [18]: 15 µM (inactive)
- GI50 [19]: 28.3 µM (inactive)
